Experimental data as given in patent publication US20050009005A1, “Methods of using quantitative lipid metabolome data” (Lipomics Technologies, Inc., priority 2001, published 2005).
Like-named read-outs stand apart in the source and are kept apart here.

System: de novo fatty acid synthesis
[1] = Liver, CE, mean of treated mice
[2] = Liver, FFA, mean of treated mice
[3] = Liver, PC, mean of treated mice
[4] = Liver, PS/I, mean of treated mice
[5] = Liver, TAG, mean of treated mice
[6] = Plasma, CE, mean of treated mice
[7] = Plasma, FFA, mean of treated mice
[8] = Plasma, PC, mean of treated mice
[9] = Plasma, PL, mean of treated mice
[10] = Plasma, TAG, mean of treated mice

CN(CCOc1ccc(CC2SC(=O)NC2=O)cc1)c1ccccn1 (stereo not drawn) [rosiglitazone]
18:0 [1]: 204.4 nanomoles per gram
18:1n7 [1]: 138.6 nanomoles per gram
18:1n9 [1]: 1208.0 nanomoles per gram
Saturates [1]: 3147.2 nanomoles per gram
Total n7 [1]: 817.0 nanomoles per gram
Total n9 [1]: 1239.5 nanomoles per gram
Total nMole of [1]: 5830.7 nanomoles per gram
14:0 (Liver, CL, mean): 0.5 percentage of total fatty acids within each lipid class
16:0 (Liver, CL, mean): 5.7 percentage of total fatty acids within each lipid class
16:1n7 (Liver, CL, mean): 6.3 percentage of total fatty acids within each lipid class
18:0 (Liver, CL, mean): 3.6 percentage of total fatty acids within each lipid class
18:1n7 (Liver, CL, mean): 5.5 percentage of total fatty acids within each lipid class
18:1n9 (Liver, CL, mean): 10.0 percentage of total fatty acids within each lipid class
Saturates (Liver, CL, mean): 10.6 percentage of total fatty acids within each lipid class
Total (Liver, CL, mean): 100.0 percentage of total fatty acids within each lipid class
Total n7 (Liver, CL, mean): 11.8 percentage of total fatty acids within each lipid class
Total n9 (Liver, CL, mean): 10.5 percentage of total fatty acids within each lipid class
14:0 (Liver, FFA, mean): 1.0 percentage of total fatty acids within each lipid class
16:0 (Liver, FFA, mean): 19.9 percentage of total fatty acids within each lipid class
16:1n7 (Liver, FFA, mean): 9.4 percentage of total fatty acids within each lipid class
18:0 (Liver, FFA, mean): 3.0 percentage of total fatty acids within each lipid class
18:1n7 (Liver, FFA, mean): 6.4 percentage of total fatty acids within each lipid class
18:1n9 (Liver, FFA, mean): 25.4 percentage of total fatty acids within each lipid class
Saturates (Liver, FFA, mean): 24.4 percentage of total fatty acids within each lipid class
Total (Liver, FFA, mean): 100.0 percentage of total fatty acids within each lipid class
Total n7 (Liver, FFA, mean): 15.8 percentage of total fatty acids within each lipid class
Total n9 (Liver, FFA, mean): 26.0 percentage of total fatty acids within each lipid class
14:0 [2]: 236.5 nanomoles per gram
16:0 [2]: 4507.0 nanomoles per gram
16:1n7 [2]: 2121.2 nanomoles per gram
18:0 [2]: 691.5 nanomoles per gram
18:1n7 [2]: 1466.0 nanomoles per gram
18:1n9 [2]: 5761.2 nanomoles per gram
Saturates [2]: 5541.5 nanomoles per gram
Total n7 [2]: 3587.3 nanomoles per gram
Total n9 [2]: 5909.9 nanomoles per gram
Total nMole of [2]: 22631.3 nanomoles per gram
14:0 (Liver, PC, mean): 0.2 percentage of total fatty acids within each lipid class
16:0 (Liver, PC, mean): 33.3 percentage of total fatty acids within each lipid class
16:1n7 (Liver, PC, mean): 1.7 percentage of total fatty acids within each lipid class
18:0 (Liver, PC, mean): 10.3 percentage of total fatty acids within each lipid class
18:1n7 (Liver, PC, mean): 4.6 percentage of total fatty acids within each lipid class
18:1n9 (Liver, PC, mean): 9.6 percentage of total fatty acids within each lipid class
Saturates (Liver, PC, mean): 44.1 percentage of total fatty acids within each lipid class
Total (Liver, PC, mean): 100.0 percentage of total fatty acids within each lipid class
Total n7 (Liver, PC, mean): 6.4 percentage of total fatty acids within each lipid class
Total n9 (Liver, PC, mean): 10.2 percentage of total fatty acids within each lipid class
14:0 [3]: 43.2 nanomoles per gram
16:0 [3]: 9572.4 nanomoles per gram
16:1n7 [3]: 501.3 nanomoles per gram
18:0 [3]: 2975.6 nanomoles per gram
18:1n7 [3]: 1329.1 nanomoles per gram
18:1n9 [3]: 2767.4 nanomoles per gram
Saturates [3]: 12686.5 nanomoles per gram
Total n7 [3]: 1830.5 nanomoles per gram
Total n9 [3]: 2932.3 nanomoles per gram
Total nMole of [3]: 14390.8 nanomoles per gram
14:0 (Liver, PS/I, mean): 0.2 percentage of total fatty acids within each lipid class
16:0 (Liver, PS/I, mean): 11.1 percentage of total fatty acids within each lipid class
16:1n7 (Liver, PS/I, mean): 0.7 percentage of total fatty acids within each lipid class
18:0 (Liver, PS/I, mean): 32.3 percentage of total fatty acids within each lipid class
18:1n7 (Liver, PS/I, mean): 2.9 percentage of total fatty acids within each lipid class
18:1n9 (Liver, PS/I, mean): 6.7 percentage of total fatty acids within each lipid class
Saturates (Liver, PS/I, mean): 44.2 percentage of total fatty acids within each lipid class
Total (Liver, PS/I, mean): 100.0 percentage of total fatty acids within each lipid class
Total n7 (Liver, PS/I, mean): 3.6 percentage of total fatty acids within each lipid class
Total n9 (Liver, PS/I, mean): 8.2 percentage of total fatty acids within each lipid class
14:0 [4]: 18.9 nanomoles per gram
16:0 [4]: 1158.5 nanomoles per gram
16:1n7 [4]: 76.0 nanomoles per gram
18:0 [4]: 3348.9 nanomoles per gram
18:1n7 [4]: 303.2 nanomoles per gram
18:1n9 [4]: 693.2 nanomoles per gram
Saturates [4]: 4590.1 nanomoles per gram
Total n7 [4]: 379.2 nanomoles per gram
Total n9 [4]: 854.3 nanomoles per gram
Total nMole of [4]: 5196.5 nanomoles per gram
14:0 (Liver, TAG, mean): 0.5 percentage of total fatty acids within each lipid class
16:0 (Liver, TAG, mean): 27.1 percentage of total fatty acids within each lipid class
16:1n7 (Liver, TAG, mean): 8.1 percentage of total fatty acids within each lipid class
18:0 (Liver, TAG, mean): 0.6 percentage of total fatty acids within each lipid class
18:1n7 (Liver, TAG, mean): 5.8 percentage of total fatty acids within each lipid class
18:1n9 (Liver, TAG, mean): 39.6 percentage of total fatty acids within each lipid class
Saturates (Liver, TAG, mean): 28.6 percentage of total fatty acids within each lipid class
Total (Liver, TAG, mean): 100.0 percentage of total fatty acids within each lipid class
Total n7 (Liver, TAG, mean): 13.9 percentage of total fatty acids within each lipid class
Total n9 (Liver, TAG, mean): 40.5 percentage of total fatty acids within each lipid class
14:0 [5]: 2450.8 nanomoles per gram
16:0 [5]: 122013.9 nanomoles per gram
16:1n7 [5]: 36411.0 nanomoles per gram
18:0 [5]: 2665.4 nanomoles per gram
18:1n7 [5]: 26279.6 nanomoles per gram
18:1n9 [5]: 179035.8 nanomoles per gram
Saturates [5]: 129102.3 nanomoles per gram
Total n7 [5]: 62690.6 nanomoles per gram
Total n9 [5]: 183105.4 nanomoles per gram
Total nMole of [5]: 150412.8 nanomoles per gram
14:0 (Plasma, CE, mean): 0.6 percentage of total fatty acids within each lipid class
16:0 (Plasma, CE, mean): 3.7 percentage of total fatty acids within each lipid class
16:1n7 (Plasma, CE, mean): 6.5 percentage of total fatty acids within each lipid class
18:0 (Plasma, CE, mean): 0.2 percentage of total fatty acids within each lipid class
18:1n7 (Plasma, CE, mean): 0.7 percentage of total fatty acids within each lipid class
18:1n9 (Plasma, CE, mean): 6.1 percentage of total fatty acids within each lipid class
Saturates (Plasma, CE, mean): 4.9 percentage of total fatty acids within each lipid class
Total (Plasma, CE, mean): 100.0 percentage of total fatty acids within each lipid class
Total n7 (Plasma, CE, mean): 7.3 percentage of total fatty acids within each lipid class
Total n9 (Plasma, CE, mean): 6.6 percentage of total fatty acids within each lipid class
14:0 [6]: 16.8 nanomoles per gram
16:0 [6]: 113.0 nanomoles per gram
16:1n7 [6]: 200.8 nanomoles per gram
18:0 [6]: 7.1 nanomoles per gram
18:1n7 [6]: 22.7 nanomoles per gram
18:1n9 [6]: 189.1 nanomoles per gram
Saturates [6]: 148.8 nanomoles per gram
Total n7 [6]: 223.4 nanomoles per gram
Total n9 [6]: 202.2 nanomoles per gram
Total nMole of [6]: 3058.7 nanomoles per gram
14:0 (Plasma, FFA, mean): 3.3 percentage of total fatty acids within each lipid class
16:0 (Plasma, FFA, mean): 30.9 percentage of total fatty acids within each lipid class
16:1n7 (Plasma, FFA, mean): 8.3 percentage of total fatty acids within each lipid class
18:0 (Plasma, FFA, mean): 8.1 percentage of total fatty acids within each lipid class
18:1n7 (Plasma, FFA, mean): 3.2 percentage of total fatty acids within each lipid class
18:1n9 (Plasma, FFA, mean): 18.4 percentage of total fatty acids within each lipid class
Saturates (Plasma, FFA, mean): 43.8 percentage of total fatty acids within each lipid class
Total (Plasma, FFA, mean): 100.0 percentage of total fatty acids within each lipid class
Total n9 (Plasma, FFA, mean): 18.9 percentage of total fatty acids within each lipid class
14:0 [7]: 15.9 nanomoles per gram
16:0 [7]: 148.4 nanomoles per gram
16:1n7 [7]: 41.4 nanomoles per gram
18:0 [7]: 37.3 nanomoles per gram
18:1n7 [7]: 15.2 nanomoles per gram
18:1n9 [7]: 90.2 nanomoles per gram
Saturates [7]: 208.8 nanomoles per gram
Total n7 [7]: 56.7 nanomoles per gram
Total n9 [7]: 92.7 nanomoles per gram
Total nMole of [7]: 478.4 nanomoles per gram
14:0 (Plasma, PC, mean): 0.1 percentage of total fatty acids within each lipid class
16:0 (Plasma, PC, mean): 30.8 percentage of total fatty acids within each lipid class
16:1n7 (Plasma, PC, mean): 0.8 percentage of total fatty acids within each lipid class
18:0 (Plasma, PC, mean): 13.0 percentage of total fatty acids within each lipid class
18:1n7 (Plasma, PC, mean): 4.1 percentage of total fatty acids within each lipid class
18:1n9 (Plasma, PC, mean): 9.4 percentage of total fatty acids within each lipid class
Saturates (Plasma, PC, mean): 44.6 percentage of total fatty acids within each lipid class
Total (Plasma, PC, mean): 100.0 percentage of total fatty acids within each lipid class
Total n7 (Plasma, PC, mean): 4.9 percentage of total fatty acids within each lipid class
Total n9 (Plasma, PC, mean): 9.9 percentage of total fatty acids within each lipid class
14:0 [8]: 5.7 nanomoles per gram
16:0 [8]: 1246.9 nanomoles per gram
16:1n7 [8]: 34.2 nanomoles per gram
18:0 [8]: 528.9 nanomoles per gram
18:1n7 [8]: 164.8 nanomoles per gram
18:1n9 [8]: 383.4 nanomoles per gram
Saturates [8]: 1804.9 nanomoles per gram
Total n7 [8]: 199.0 nanomoles per gram
Total n9 [8]: 405.1 nanomoles per gram
Total nMole of [8]: 2027.9 nanomoles per gram
14:0 (Plasma, PL, mean): 0.2 percentage of total fatty acids within each lipid class
16:0 (Plasma, PL, mean): 30.9 percentage of total fatty acids within each lipid class
16:1n7 (Plasma, PL, mean): 0.9 percentage of total fatty acids within each lipid class
18:0 (Plasma, PL, mean): 11.9 percentage of total fatty acids within each lipid class
18:1n7 (Plasma, PL, mean): 3.9 percentage of total fatty acids within each lipid class
18:1n9 (Plasma, PL, mean): 7.4 percentage of total fatty acids within each lipid class
Saturates (Plasma, PL, mean): 43.9 percentage of total fatty acids within each lipid class
Total (Plasma, PL, mean): 100.0 percentage of total fatty acids within each lipid class
Total n7 (Plasma, PL, mean): 4.8 percentage of total fatty acids within each lipid class
Total n9 (Plasma, PL, mean): 8.7 percentage of total fatty acids within each lipid class
14:0 [9]: 7.7 nanomoles per gram
16:0 [9]: 1533.6 nanomoles per gram
16:1n7 [9]: 43.0 nanomoles per gram
18:0 [9]: 604.7 nanomoles per gram
18:1n7 [9]: 195.0 nanomoles per gram
18:1n9 [9]: 384.8 nanomoles per gram
Saturates [9]: 2191.4 nanomoles per gram
Total n7 [9]: 238.0 nanomoles per gram
Total n9 [9]: 449.9 nanomoles per gram
Total nMole of [9]: 2496.5 nanomoles per gram
14:0 (Plasma, TAG, mean): 1.2 percentage of total fatty acids within each lipid class
16:0 (Plasma, TAG, mean): 21.9 percentage of total fatty acids within each lipid class
16:1n7 (Plasma, TAG, mean): 7.0 percentage of total fatty acids within each lipid class
18:0 (Plasma, TAG, mean): 1.8 percentage of total fatty acids within each lipid class
18:1n7 (Plasma, TAG, mean): 4.5 percentage of total fatty acids within each lipid class
18:1n9 (Plasma, TAG, mean): 27.2 percentage of total fatty acids within each lipid class
Saturates (Plasma, TAG, mean): 25.8 percentage of total fatty acids within each lipid class
Total (Plasma, TAG, mean): 100.0 percentage of total fatty acids within each lipid class
Total n9 (Plasma, TAG, mean): 27.9 percentage of total fatty acids within each lipid class
14:0 [10]: 17.1 nanomoles per gram
16:0 [10]: 315.8 nanomoles per gram
16:1n7 [10]: 102.5 nanomoles per gram
18:0 [10]: 24.9 nanomoles per gram
18:1n7 [10]: 66.1 nanomoles per gram
18:1n9 [10]: 398.8 nanomoles per gram
Saturates [10]: 368.7 nanomoles per gram
Total n7 [10]: 168.5 nanomoles per gram
Total n9 [10]: 410.2 nanomoles per gram
Total nMole of [10]: 484.3 nanomoles per gram
